Reference: patent publication US7259159B2, “Guanidino derivatives as inhibitors of cell adhesion” (Sanofi-Aventis Deutschland GmbH, priority 2000, dated 2007)

Each compound was assayed against T1, human vitronectin receptor αvβ3 (Homo sapiens, UniProt P05106+P06756) (assay: Kistrin binding assay (αvβ3 ELISA test, K/VnR)). Details: not given.
T1 construct: Human vitronectin receptor was obtained from the human placenta according to the method of Pytela et al; from tissue; host or cells: human placenta
T1 sequence (P06756 31-889 limits assumed): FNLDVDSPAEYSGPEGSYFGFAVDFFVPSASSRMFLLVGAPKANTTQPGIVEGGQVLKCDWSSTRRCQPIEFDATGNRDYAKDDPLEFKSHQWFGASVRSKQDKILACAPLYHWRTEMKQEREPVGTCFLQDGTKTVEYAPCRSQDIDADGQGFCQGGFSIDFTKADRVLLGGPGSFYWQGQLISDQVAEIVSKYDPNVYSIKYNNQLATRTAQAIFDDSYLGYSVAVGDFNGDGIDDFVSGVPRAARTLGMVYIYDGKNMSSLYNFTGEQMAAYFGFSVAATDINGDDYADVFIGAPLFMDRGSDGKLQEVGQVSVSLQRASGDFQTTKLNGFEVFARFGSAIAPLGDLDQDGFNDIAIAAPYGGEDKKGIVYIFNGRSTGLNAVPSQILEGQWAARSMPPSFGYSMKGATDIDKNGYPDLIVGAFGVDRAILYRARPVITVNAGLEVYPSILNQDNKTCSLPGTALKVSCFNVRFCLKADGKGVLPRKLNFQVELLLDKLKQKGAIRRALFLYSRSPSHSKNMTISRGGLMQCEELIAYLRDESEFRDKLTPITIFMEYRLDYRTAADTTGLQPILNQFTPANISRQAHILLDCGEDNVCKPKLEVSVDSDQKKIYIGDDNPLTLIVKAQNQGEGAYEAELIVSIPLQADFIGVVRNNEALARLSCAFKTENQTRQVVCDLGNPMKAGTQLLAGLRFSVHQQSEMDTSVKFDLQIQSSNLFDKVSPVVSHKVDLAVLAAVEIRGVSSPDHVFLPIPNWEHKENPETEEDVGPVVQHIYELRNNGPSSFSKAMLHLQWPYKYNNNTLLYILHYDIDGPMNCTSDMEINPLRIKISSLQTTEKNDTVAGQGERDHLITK
T1 sequence (P06756 891-1048 partner limits assumed): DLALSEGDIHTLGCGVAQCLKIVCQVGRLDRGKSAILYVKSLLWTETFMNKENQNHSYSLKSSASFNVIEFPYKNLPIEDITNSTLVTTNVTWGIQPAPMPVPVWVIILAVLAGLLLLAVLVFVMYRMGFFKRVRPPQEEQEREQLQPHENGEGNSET
T1 sequence (P05106 27-788): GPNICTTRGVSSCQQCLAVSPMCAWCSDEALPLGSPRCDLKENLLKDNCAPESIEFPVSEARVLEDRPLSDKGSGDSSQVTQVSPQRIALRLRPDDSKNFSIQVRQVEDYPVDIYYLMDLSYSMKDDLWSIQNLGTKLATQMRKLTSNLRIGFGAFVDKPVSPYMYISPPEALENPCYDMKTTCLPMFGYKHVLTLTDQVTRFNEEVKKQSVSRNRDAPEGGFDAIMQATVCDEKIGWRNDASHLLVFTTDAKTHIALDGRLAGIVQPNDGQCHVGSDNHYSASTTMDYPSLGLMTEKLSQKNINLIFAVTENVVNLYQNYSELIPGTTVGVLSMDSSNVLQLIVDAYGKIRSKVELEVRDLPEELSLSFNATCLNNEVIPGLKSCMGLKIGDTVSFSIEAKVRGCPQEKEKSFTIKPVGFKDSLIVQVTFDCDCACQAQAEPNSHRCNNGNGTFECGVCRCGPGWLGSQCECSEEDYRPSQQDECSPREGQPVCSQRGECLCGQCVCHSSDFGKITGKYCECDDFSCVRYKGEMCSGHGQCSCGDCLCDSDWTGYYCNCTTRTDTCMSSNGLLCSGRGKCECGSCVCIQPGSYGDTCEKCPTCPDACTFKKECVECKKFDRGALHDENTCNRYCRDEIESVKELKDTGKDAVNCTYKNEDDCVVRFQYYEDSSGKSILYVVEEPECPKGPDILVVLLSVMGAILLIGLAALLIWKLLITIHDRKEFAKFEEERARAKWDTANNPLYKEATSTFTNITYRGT
Description: The inhibition of the binding of kistrin to human vitronectin receptor (VnR) described below is a test method by which the antagonistic action of the compounds of the invention on the vitronectin receptor αvβ3 can be determined (αvβ3 ELISA Test; the test method is abbreviated as “K/VnR” in the listing of the test results).
Kistrin was purified according to the methods of Dennis et al., as described in Proc. Natl. Acad. Sci. USA 87 (1989) 2471 and Proteins: Structure, Function and Genetics 15 (1993)312.
Purification of Human vitronectin Receptor (αvβ3)
Human vitronectin receptor was obtained from the human placenta according to the method of Pytela et al., Methods Enzymol. 144 (1987) 475. Human vitronectin receptor αvβ3 can also be obtained from some cell lines (for example from 293 cells, a human embryonic kidney cell line) which are co-transfected with DNA sequences for both subunits αv and β3 of the vitronectin receptor. The subunits are extracted with octyl glycoside and then chromatographed through concanavalin A, heparin-Sepharose and S-300.
Murine monoclonal antibodies which are specific for the β3 subunits of the vitronectin receptor, were prepared according to the method of Newman et al., Blood, 1985, 227, or by a similar process. The rabbit Fab 2 anti-mouse Fc conjugate to horseradish peroxidase (anti-mouse Fc HRP) was obtained from Pel Freeze (Catalog No. 715 305-1).
The ability of substances to inhibit the binding of kistrin to the vitronectin receptor can be determined using an ELISA test. For this purpose, Nunc 96-well microtiter plates were coated with a solution of kistrin (0.002 mg/ml) according to the method of Dennis et al., as described in Proteins: Structure, Function and Genetics 15 (1993) 312. The plates were then washed twice with PBS/0.05% Tween-20 and blocked by incubating (60 min) with bovine serum albumin (BSA, 0.5%, RIA grade or better) in buffer solution (Tris-HCl (50 mM), NaCl (100 mM), MgCl2 (1 mM), CaCl2 (1 mM), MnCl2 (1 mM), pH 7). Solutions of known inhibitors and of the test substances were prepared in concentrations from 2×10^−12 to 2×10^−6 mol/l in assay buffer (BSA (0.5%, RIA grade or better); Tris-HCl (50 mM), NaCl (100 mM), MgCl2 (1 mM), CaCl2 (1 mM), MnCl2 (1 mM), pH 7). The blocked plates were emptied, and in each case 0.025 ml of this solution which contains a defined concentration (2×10^−12 to 2×10^−6 mol/l) either of a known inhibitor or of a test substance, were added to each well. 0.025 ml of a solution of the vitronectin receptor in assay buffer (0.03 mg/ml) was pipetted into each well of the plate and the plate was incubated at room temperature for 60-180 min on a shaker. In the meantime, a solution (6 ml/plate) of a murine monoclonal antibody specific for the […] of the vitronectin receptor was prepared in assay buffer (0.0015 mg/ml). A second rabbit antibody (0.001 ml of stock solution/6 ml of the murine monoclonal anti-β3 antibody solution) which is an anti-mouse Fc HRP antibody conjugate was added to this solution, and this mixture of murine anti-β3 antibody and rabbit anti-mouse Fc HRP antibody conjugate was incubated during the time of the receptor-inhibitor incubation. The test plates were washed four times with PBS solution which contains 0.05% Tween-20, and in each case 0.05 ml/well of the antibody mixture was pipefted into each well of the plate and incubated for 60-180 min. The plate was washed four times with PBS/0.05% Tween-20 and then developed with 0.05 ml/well of a PBS solution which contained 0.67 mg/ml of ophenylenediamine and 0.012% of H2O2. Alternatively to this, o-phenylenediamine can be employed in a buffer (pH 5) which contains Na3PO4 and citric acid. The color development was stopped using 1 N H2SO4 (0.05 ml/well). The absorption for each well was measured at 492-405 nm and the data are evaluated by standard methods.

Row | Compound | IC50
1 | Cc1nc(NC[C@H](NS(=O)(=O)c2cccc3ccccc23)C(=O)O)c2ccn(CCCC(=O)NC3=NCCCN3)c2n1 [Example 3, (2S)-3-{2-Methyl-7-[3-(1,4,5,6-tetrahydro-pyrimidin-2-ylcarbamoyl)-propyl]-7H-pyrrolo[2,3-d]pyrimidin-4-ylamino}-2-(naphthalene-1-sulfonylamino)-propionic acid] | 2.2 nM

Same assay, conditions: inhibition of the binding of kistrin to human vitronectin receptor (VnR), ELISA; read-out: K/VnR IC50

Row | IC50 | Compound
2 | 2.6 nM | Cc1nc(NC[C@H](NS(=O)(=O)c2ccc(Br)cc2)C(=O)O)c2ccn(CCCC(=O)NC3=NCCCN3)c2n1 [Example 5, (2S)-3-{2-Methyl-7-[3-(1,4,5,6-tetrahydro-pyrimidin-2-ylcarbamoyl)-propyl]-7H-pyrrolo[2,3-d]pyrimidin-4-ylamino}-2-(4-bromobenzenesulfonylamino)-propionic acid]
3 | 3.5 nM | Cc1nc(NC[C@H](NC(=O)OCc2ccccc2)C(=O)O)c2ccn(CCCC(=O)NC3=NCCCN3)c2n1 [Example 2, (2S)-2-Benzyloxycarbonylamino-3-{2-methyl-7-[3-(1,4,5,6-tetrahydro-pyrimidin-2-ylcarbamoyl)-propyl]-7H-pyrrolo[2,3-d]pyrimidin-4-ylamino}-propionic acid]
4 | 3 nM | Cc1nc(NC[C@H](NS(=O)(=O)c2ccccc2)C(=O)O)c2ccn(CCCC(=O)NC3=NCCCN3)c2n1 [Example 4, (2S)-3-{2-Methyl-7-[3-(1,4,5,6-tetrahydro-pyrimidin-2-ylcarbamoyl)-propyl]-7H-pyrrolo[2,3-d]pyrimidin-4-ylamino}-2-(benzenesulfonylamino)-propionic acid]
5 | 10 nM | Cc1nc(SC[C@H](NS(=O)(=O)c2ccccc2)C(=O)O)c2ccn(CCCC(=O)NC3=NCCCN3)c2n1 [Example 8, (2R)-3-{2-Methyl-7-[3-(1,4,5,6-tetrahydro-pyrimidin-2-ylcarbamoyl)-propyl]-7H-pyrrolo[2,3-d]pyrimidin-4-ylsulfanyl}-2-(benzenesulfonylamino)-propionic acid]
6 | 5 nM | Cc1nc(SC[C@H](NS(=O)(=O)c2cccc3ccccc23)C(=O)O)c2ccn(CCCC(=O)NC3=NCCCN3)c2n1 [Example 7, (2R)-3-{2-Methyl-7-[3-(1,4,5,6-tetrahydro-pyrimidin-2-ylcarbamoyl)-propyl]-7H-pyrrolo[2,3-d]pyrimidin-4-ylsulfanyl}-2-(naphthalene-1-sulfonylamino)-propionic acid]
7 | 13.5 nM | Cc1nc(SC[C@H](NS(=O)(=O)c2ccc(Br)cc2)C(=O)O)c2ccn(CCCC(=O)NC3=NCCCN3)c2n1 [Example 6, (2R)-3-{2-Methyl-7-[3-(1,4,5,6-tetrahydro-pyrimidin-2-ylcarbamoyl)-propyl]-7H-pyrrolo[2,3-d]pyrimidin-4-ylsulfanyl}-2-(4-bromobenzenesulfonylamino)-propionic acid]
8 | 22 nM | O=C(CCCn1cnc2c(NC[C@H](NC(=O)OCc3ccccc3)C(=O)O)ncnc21)NC1=NCCCN1 [Example 1, (2S)-2-Benzyloxycarbonylamino-3-{9-[3-(1,4,5,6-tetrahydro-pyrimidin-2-ylcarbamoyl)-propyl]-9H-purin-6-ylamino}-propionic acid]
